Assay results from PubChem BioAssay AID256 (DTP/NCI, 2004).
Where “and” joins values, the source holds several entries; their conditions need not be identical. Equal entries are not always repeated. Inconclusive results and toxic doses are left out.

Test system: CD2F1 mice, L1210 leukemia ip, survival T/C
Assay: NCI In Vivo Anticancer Drug Screen. Data for tumor model L1210 Leukemia (intraperitoneal) in CD2F1 (CDF1) mice
Conditions: higher = longer survival
Outline: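 Ratio T/C, where T is the treated-group value and C the vehicle-dosed control value, from mice implanted with a transplantable tumor.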

[1] = endpoint: mean survival time, dose: 100.0 mg/kg/injection, schedule: Q01DX009 (ip), vehicle: saline with Tween-80
[2] = endpoint: mean survival time, dose: 200.0 mg/kg/injection, schedule: Q01DX009 (ip), vehicle: saline with Tween-80

For CCCC(=O)OCC1OC(n2ccc(O)cc2=O)C(O)C1O (stereo unspecified), the T/C (endpoint: median survival time, dose: 44.0 mg/kg/injection, schedule: Q01DX009 (ip), vehicle: saline + Tween-80 + alcohol) was 171 % of control, the T/C (endpoint: median survival time, dose: 67.0 mg/kg/injection, schedule: Q01DX009 (ip), vehicle: saline + Tween-80 + alcohol) was 174 % of control and the T/C (endpoint: median survival time, dose: 100.0 mg/kg/injection, schedule: Q01DX009 (ip), vehicle: saline + Tween-80 + alcohol) was 168 % of control. For the same molecule, the T/C (endpoint: median survival time, dose: 150.0 mg/kg/injection, schedule: Q01DX009 (ip), vehicle: saline + Tween-80 + alcohol) was 162 % of control.

With O=C1c2ccccc2C(Cl)(c2ccc(Cl)cc2)c2ccc(Cl)cc21 (stereo unspecified) the T/C (endpoint: median survival time, dose: 25.0 mg/kg/injection, schedule: Q01DX009 (ip), vehicle: saline with Tween-80) was 111 % of control, the T/C (endpoint: median survival time, dose: 50.0 mg/kg/injection, schedule: Q01DX009 (ip), vehicle: saline with Tween-80) was 112 % of control and the T/C (endpoint: median survival time, dose: 100.0 mg/kg/injection, schedule: Q01DX009 (ip), vehicle: saline with Tween-80) was 111 % of control.

With Cc1ccc(S(=O)(=O)Nc2ccccc2N(CCN(CCOS(=O)(=O)c2ccc(C)cc2)S(=O)(=O)c2ccc(C)cc2)S(=O)(=O)c2ccc(C)cc2)cc1 the T/C (endpoint: mean survival time, dose: 25.0 mg/kg/injection, schedule: Q04DX003 (ip), vehicle: saline with Tween-80) was 95 % of control, the T/C (endpoint: mean survival time, dose: 50.0 mg/kg/injection, schedule: Q04DX003 (ip), vehicle: saline with Tween-80) was 100 % of control and the T/C (endpoint: mean survival time, dose: 100.0 mg/kg/injection, schedule: Q04DX003 (ip), vehicle: saline with Tween-80) was 91 % of control. For the same molecule, the T/C (endpoint: mean survival time, dose: 200.0 mg/kg/injection, schedule: Q04DX003 (ip), vehicle: saline with Tween-80) was 95 % of control.

CCCCCCCCCCCCCCCCCCCOc1ccc(OCCCCCCCCCCCC)cc1 was tested, and the T/C (endpoint: mean survival time, dose: 100.0 mg/kg/injection, schedule: Q01DX001 (ip), vehicle: saline with Tween-80) was 93 % of control, the T/C (endpoint: mean survival time, dose: 200.0 mg/kg/injection, schedule: Q01DX001 (ip), vehicle: saline with Tween-80) was 89 % of control and the T/C (endpoint: mean survival time, dose: 400.0 mg/kg/injection, schedule: Q01DX001 (ip), vehicle: saline with Tween-80) was 88 % of control.

For O=C(CBr)CC(O)(C(F)(F)F)C(F)(F)F, the T/C (endpoint: mean survival time, dose: 12.5 mg/kg/injection, schedule: Q04DX003 (ip), vehicle: saline) was 98 % of control.

With Cc1cc(=O)n2cc(Br)ccc2n1 the T/C (endpoint: mean survival time, dose: 12.5 mg/kg/injection, schedule: Q01DX001 (ip), vehicle: saline) was 108 % of control, the T/C (endpoint: mean survival time, dose: 25.0 mg/kg/injection, schedule: Q01DX001 (ip), vehicle: saline) was 107 % of control and the T/C (endpoint: mean survival time, dose: 50.0 mg/kg/injection, schedule: Q01DX001 (ip), vehicle: saline) was 96 % of control.

In the case of O=C(O)CCC(=O)NO, the T/C (endpoint: mean survival time, dose: 100.0 mg/kg/injection, schedule: Q04DX003 (ip), vehicle: saline) is reported as 109 % of control, the T/C (endpoint: mean survival time, dose: 200.0 mg/kg/injection, schedule: Q04DX003 (ip), vehicle: saline) is reported as 109 % of control and the T/C (endpoint: mean survival time, dose: 400.0 mg/kg/injection, schedule: Q04DX003 (ip), vehicle: saline) is reported as 109 % of control.

For CC[C@@]1(O)C(=O)OCc2c1cc1n(c2=O)Cc2cc3c(CN(C)C)c(O)ccc3nc2-1, the T/C (endpoint: median survival time, dose: 5.0 mg/kg/injection, schedule: Q04DX002 (ip), vehicle: water) was 119 % of control, the T/C (endpoint: median survival time, dose: 20.0 mg/kg/injection, schedule: Q04DX002 (ip), vehicle: water) was 183 % of control and the T/C (endpoint: median survival time, dose: 40.0 mg/kg/injection, schedule: Q04DX002 (ip), vehicle: water) was 264 % of control.

With O=NN(CCCl)C(=O)NC1CSCSC1 the T/C (endpoint: mean survival time, dose: 6.0 mg/kg/injection, schedule: Q01DX001 (ip), vehicle: saline with Tween-80) was 164 % of control, the T/C (endpoint: mean survival time, dose: 9.0 mg/kg/injection, schedule: Q01DX001 (ip), vehicle: saline with Tween-80) was 297 % of control and the T/C (endpoint: mean survival time, dose: 13.0 mg/kg/injection, schedule: Q01DX001 (ip), vehicle: saline with Tween-80) was 331 % of control. For the same molecule, the T/C (endpoint: mean survival time, dose: 20.0 mg/kg/injection, schedule: Q01DX001 (ip), vehicle: saline with Tween-80) was 352 % of control and the T/C (endpoint: mean survival time, dose: 30.0 mg/kg/injection, schedule: Q01DX001 (ip), vehicle: saline with Tween-80) was 344 % of control.

For OCCN=c1c2ccccc2n(O)c2c1ccc1ccccc12, the T/C (endpoint: mean survival time, dose: 50.0 mg/kg/injection, schedule: Q01DX009 (ip), vehicle: saline with Tween-80) was 104 % of control, the T/C [1] was 112 % of control and the T/C [2] was 108 % of control.

In the case of Cc1cc(SCC(=O)c2ccc(Br)cc2)cc(C)[o+]1, the T/C (endpoint: mean survival time, dose: 6.25 mg/kg/injection, schedule: Q01DX009 (ip), vehicle: saline) is reported as 96 % of control and 104 % of control, the T/C (endpoint: mean survival time, dose: 12.5 mg/kg/injection, schedule: Q01DX009 (ip), vehicle: saline) is reported as 102 % of control and 108 % of control and the T/C (endpoint: mean survival time, dose: 25.0 mg/kg/injection, schedule: Q01DX009 (ip), vehicle: saline) is reported as 96 % of control and 108 % of control. For the same molecule, the T/C (endpoint: mean survival time, dose: 50.0 mg/kg/injection, schedule: Q01DX009 (ip), vehicle: saline) was 92 % of control and 96 % of control, the T/C (endpoint: mean survival time, dose: 100.0 mg/kg/injection, schedule: Q01DX009 (ip), vehicle: saline) was 102 % of control and the T/C (endpoint: mean survival time, dose: 200.0 mg/kg/injection, schedule: Q01DX009 (ip), vehicle: saline) was 86 % of control.

For C(=C\c1cccnc1)/c1ccncc1, the T/C [1] was 97 % of control, the T/C [2] was 95 % of control and the T/C (endpoint: mean survival time, dose: 400.0 mg/kg/injection, schedule: Q01DX009 (ip), vehicle: saline with Tween-80) was 106 % of control.
